This is an account of results in ChEMBL document CHEMBL5325488, “Discovery of SMD-3040 as a Potent and Selective SMARCA2 PROTAC Degrader with Strong in vivo Antitumor Activity” (J Med Chem, 2023).

The target in data set [1] is T1, von Hippel-Lindau disease tumor suppressor/SWI/SNF-related matrix-associated actin-dependent regulator of chromatin subfamily A member 2 (Homo sapiens, UniProt P51531+P40337). Description: PROTAC activity at VHL/C-terminal HiBiT fused SMARCA2 in human HeLa cells assessed as induction of SMARCA2 degradation by measuring maximal efficacy at 0.0001 to 1 uM incubated for 24 hrs by Nano-Glo HiBiT analysis relative to control. Format: cell-based. The following applies: dose 0.0001-1 µM.

Data set [2] deals with T1, von Hippel-Lindau disease tumor suppressor/SWI/SNF-related matrix-associated actin-dependent regulator of chromatin subfamily A member 2. Description: In vivo PROTAC activity at VHL/SMARCA2 in SCID mouse xenografted with human NCI-H838 cells assessed as remaining activity in tumor at 50 mg/kg, iv administered as single dose measured after 96 hrs by Western blotting analysis (reference value: 100 +/- 7% ). Format: functional, organism-based. (In general: Xenograft models place foreign cells or tissue in a host animal.)

Data set [3] has the same target. Description: PROTAC activity at VHL/C-terminal HiBiT fused SMARCA2 in human HeLa cells assessed as induction of SMARCA2 degradation pre-treated with PR171 for 2 hrs followed by compound treatment for 24 hrs by Nano-Glo HiBiT analysis. The class given is cell-based.
A short description of data set [4]: Drug concentration in SCID mouse tumor xenografted with human MV4-11 cells at 50 mg/kg, iv measured after 96 hrs by LC-MS/MS method. The class given is ADME, organism-based, Neoplasm. As to conditions: read-out: Ct.
The target of data set [5] is T1, von Hippel-Lindau disease tumor suppressor/SWI/SNF-related matrix-associated actin-dependent regulator of chromatin subfamily A member 2. Description: In vivo PROTAC activity at VHL/SMARCA2 in SCID mouse xenografted with human NCI-H838 cells assessed as reduction of SMARCA2 level in tumor at 50 mg/kg, iv administered as single dose measured after 24 hrs by Western blotting analysis. Also on record: scale not given: the % may be the effect or the level left. Format: functional, organism-based.

A short description of data set [6]: Antiproliferative activity against SMARCA4-deficient human NCI-H1568 cells assessed as cell growth inhibition measured after 7 days by WST-8 assay. Format: functional. The following applies: NCI-H1568, 168 h, time 7 day. For orientation: Tetrazolium assays rely on reduction of a dye to a coloured formazan, in cell work by metabolically active cells.
Data set [7] relates to NCI-H1944. The data set can be described thus: Antiproliferative activity against SMARCA4-deficient human NCI-H1944 cells assessed as cell growth inhibition measured after 7 days by WST-8 assay. Format: functional. As to conditions: NCI-H1944, 168 h, time 7 day.

A word on the Emax: it is the maximal effect, on the per cent scale that the assay sets. One may read the GI50 as the concentration that inhibits growth by half.

Active and inactive are the calls of the source. The rule behind the calls is not given here.

T1 sequence (P40337 whole entry, looked up, the tested form may be a part): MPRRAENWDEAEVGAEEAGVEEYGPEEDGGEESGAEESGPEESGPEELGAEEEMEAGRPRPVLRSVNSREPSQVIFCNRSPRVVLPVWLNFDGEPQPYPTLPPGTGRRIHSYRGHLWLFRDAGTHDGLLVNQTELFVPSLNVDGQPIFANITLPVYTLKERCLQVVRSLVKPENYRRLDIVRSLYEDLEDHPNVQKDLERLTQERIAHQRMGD
T1 sequence (P51531 whole entry, looked up, the tested form may be a part): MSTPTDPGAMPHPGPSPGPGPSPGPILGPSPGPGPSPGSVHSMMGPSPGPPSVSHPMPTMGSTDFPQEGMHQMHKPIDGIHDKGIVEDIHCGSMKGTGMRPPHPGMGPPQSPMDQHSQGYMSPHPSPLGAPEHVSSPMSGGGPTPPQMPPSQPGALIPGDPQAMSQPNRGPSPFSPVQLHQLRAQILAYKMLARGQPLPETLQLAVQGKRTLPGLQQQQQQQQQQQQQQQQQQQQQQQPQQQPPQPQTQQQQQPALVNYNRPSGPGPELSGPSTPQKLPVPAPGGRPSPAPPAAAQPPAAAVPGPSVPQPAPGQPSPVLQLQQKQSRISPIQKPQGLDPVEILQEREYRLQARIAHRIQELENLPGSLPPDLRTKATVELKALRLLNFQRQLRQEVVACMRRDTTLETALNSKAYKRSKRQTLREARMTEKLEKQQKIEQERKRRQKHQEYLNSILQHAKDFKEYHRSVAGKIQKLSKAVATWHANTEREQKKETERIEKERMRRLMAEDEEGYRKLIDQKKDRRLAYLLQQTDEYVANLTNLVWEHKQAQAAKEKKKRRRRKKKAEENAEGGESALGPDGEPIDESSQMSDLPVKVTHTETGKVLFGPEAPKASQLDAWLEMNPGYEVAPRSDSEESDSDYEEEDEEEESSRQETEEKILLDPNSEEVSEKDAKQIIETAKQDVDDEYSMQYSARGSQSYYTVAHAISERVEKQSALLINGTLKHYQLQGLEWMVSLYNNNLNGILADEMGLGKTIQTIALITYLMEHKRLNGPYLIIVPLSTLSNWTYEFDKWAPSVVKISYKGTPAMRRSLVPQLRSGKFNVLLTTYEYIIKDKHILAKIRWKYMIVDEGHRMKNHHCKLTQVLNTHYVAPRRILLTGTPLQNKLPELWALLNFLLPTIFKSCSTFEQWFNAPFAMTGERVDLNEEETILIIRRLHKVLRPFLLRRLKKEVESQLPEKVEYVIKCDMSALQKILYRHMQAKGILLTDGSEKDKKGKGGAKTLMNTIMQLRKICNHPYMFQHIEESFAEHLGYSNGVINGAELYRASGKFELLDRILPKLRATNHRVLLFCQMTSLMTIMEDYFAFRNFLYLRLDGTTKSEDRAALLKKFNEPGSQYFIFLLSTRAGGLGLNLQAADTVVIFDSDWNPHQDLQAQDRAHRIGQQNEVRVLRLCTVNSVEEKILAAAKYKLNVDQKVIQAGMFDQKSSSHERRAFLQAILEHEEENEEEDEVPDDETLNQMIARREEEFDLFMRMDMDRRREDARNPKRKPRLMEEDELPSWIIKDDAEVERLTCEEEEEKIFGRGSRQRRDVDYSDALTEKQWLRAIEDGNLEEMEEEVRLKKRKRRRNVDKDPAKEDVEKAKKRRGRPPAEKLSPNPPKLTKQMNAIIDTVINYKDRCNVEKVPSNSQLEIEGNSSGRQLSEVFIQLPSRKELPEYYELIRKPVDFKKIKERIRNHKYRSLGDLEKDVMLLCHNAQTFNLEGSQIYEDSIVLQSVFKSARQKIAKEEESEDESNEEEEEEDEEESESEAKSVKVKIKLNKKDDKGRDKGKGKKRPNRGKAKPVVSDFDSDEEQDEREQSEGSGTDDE

As to `Cc1ncsc1-c1ccc([C@H](C)NC(=O)[C@@H]2C[C@@H](O)CN2C(=O)[C@@H](NC(=O)[C@H]2CC[C@H](CN3CC4(CCC(n5cc(-c6cc(-c7ccccc7O)nnc6N)cn5)CC4)C3)CC2)C(C)(C)C)cc1`, in data set [1], the Emax turned out to be 90%. The values for the Activity in data set [2] and in data set [5] were 33% and 91%, respectively. Moreover, the result in data set [3] was inactive. In addition, the concentration at 96 h in data set [4] was determined as 560 ng/g. The GI50 was 8.8 nM in data set [6] and 30 nM in data set [7].
